# Source: US9636299B2, “Method for treating diabetic retinopathy” (XAVIER UNIVERSITY OF LOUISIANA, priority 2012, dated 2017)
# Residues, ends and D or L forms follow the SMILES beside them.
# Experiments:
# occludin = assay: Occludin expression in high glucose-treated hRMECs (Western blot); format: cell-based, human
# Excerpt: (§1) Cell Culture. Primary cultures of human retina microvascular endothelial cells (hRMECs) were purchased from the Applied Cell Biology Research Institute and grown on attachment factor-coated plates in cell systems complete (CSC) medium (Cell Systems, Kirkland, Wash.) supplemented with 20% fetal bovine serum, culture boost (animal derived growth factors) and bac-off (antibiotics). The primary hRMECs were used in their passages 4 to 6. The 18-a.a. apoE mimetic peptide apoEdp (SEQ ID NO:3, Ac-LRKLRKRLLLRKLRKRLL-amide), derived from the human apolipoprotein E receptor-binding region (see SED ID NO:1) between residues 141 and 149, was synthesized (Genemed, Arlington, Tex.) with a purity of greater than 95%. The apoEdp peptide was dissolved in phosphate-buffered saline (“PBS”) at a concentration appropriate for further experimental use. […]
# (§2) Western Blotting. […] The total protein concentration was determined using a BCA protein assay kit (Pierce, Rockford, Ill.). […] To ensure the equal loading of protein in each lane, each membrane was stripped and re-probed with an antibody against β-actin, and the chemiluminescence was detected as described previously. After scanning the blots with a flatbed scanner, band intensities were analyzed using ImageJ (NIH) and the relative intensity values were normalized to control values. […]
# MMP9 = MMP9 expression in high glucose-treated hRMECs (Western blot); format: cell-based, human; conditions: 30 mM glucose 72 hours, 50 or 100 μM apoEdp
# Excerpt: as §1, §2
compound,measurement,setting,value
"CC(=O)N[C@@H](CC(C)C)C(=O)N[C@@H](CCCNC(=N)N)C(=O)N[C@@H](CCCCN)C(=O)N[C@@H](CC(C)C)C(=O)N[C@@H](CCCNC(=N)N)C(=O)N[C@@H](CCCCN)C(=O)N[C@@H](CCCNC(=N)N)C(=O)N[C@@H](CC(C)C)C(=O)N[C@@H](CC(C)C)C(=O)N[C@@H](CC(C)C)C(=O)N[C@@H](CCCNC(=N)N)C(=O)N[C@@H](CCCCN)C(=O)N[C@@H](CC(C)C)C(=O)N[C@@H](CCCNC(=N)N)C(=O)N[C@@H](CCCCN)C(=O)N[C@@H](CCCNC(=N)N)C(=O)N[C@@H](CC(C)C)C(=O)N[C@@H](CC(C)C)C(N)=O [apoEdp, Ac-LRKLRKRLLLRKLRKRLL-amide] (Ac-LRKLRKRLLLRKLRKRLL-NH2)",Occludin expression versus 30 mM glucose alone,occludin; hRMECs co-incubated with 100 μM apoEdp and 30 mM glucose,greater levels of occludin
same,High glucose-induced loss of tight junction protein occludin,"occludin; hRMECs, 30 mM glucose 72 hours, 50 or 100 μM apoEdp",reduced
same,High glucose-induced expression of MMP9,MMP9,suppressed the expression
